# Experimental data from ChEMBL document CHEMBL1134487, “Design, synthesis, and biological evaluation of analogues of the antitumor agent, 2-(4-[(7-chloro-2-quinoxalinyl)oxy]phenoxy)propionic acid (XK469)” (2001).
# Activity calls are given as the source filed them. The rule behind the calls is not given here.
# Experiments:
# Mus musculus [1] = test: In vivo activity tested against C3H mice bearing colon adenocarcinoma -38(colon-38) tumor measured as log Kill value was based on tumors that grew at 769 mg/kg (po); format: functional, organism-based; design: dose 769 mg/kg
# Mus musculus [2] = test: In vivo activity tested against C3H mice bearing colon adenocarcinoma -38(colon-38) tumor measured as body weight loss at 769 mg/kg (po); format: functional
# Mus musculus [3] = test: In vivo activity tested against C3H mice bearing colon adenocarcinoma -38(colon-38) tumor measured as activity rating at 769 mg/kg (po); format: functional
# Mus musculus [4] = test: In vivo activity tested against C3H mice bearing colon adenocarcinoma -38(colon-38) tumor measured as % treated/control calculated at 769 mg/kg (po); format: functional
# Mus musculus [5] = test: In vivo activity tested against C3H mice bearing panc-03 murine tumor measured as activity rating at 1085 mg/kg (po); format: functional
# Mus musculus [6] = test: In vivo activity tested against C3H mice bearing panc-03 murine tumor measured as log Kill value was based on tumors that grew at 1085 mg/kg (po); format: functional, organism-based; design: dose 1085 mg/kg
# Mus musculus [7] = test: In vivo activity tested against C3H mice bearing panc-03 murine tumor measured as body weight loss at 1085 mg/kg (po); format: functional
# Mus musculus [8] = test: In vivo activity tested against C3H mice bearing panc-03 murine tumor measured as % treated/control calculated at 1085 mg/kg (po); format: functional
# Mus musculus [9] = test: In vivo activity tested against C3H mice bearing panc-03 murine tumor, measured as cures at 1085 mg/kg (po); 3/5 cures; format: functional
# Mus musculus [10] = test: In vivo activity tested against C3H mice bearing panc-03 murine tumor at a dose of 330mg/kg, measured as % treated/control; format: functional
# Mus musculus [11] = test: In vivo activity tested against C3H mice bearing panc-03 murine tumor at a dose of 330 mg/kg, measured as activity rating at 330 mg/kg iv dose; format: functional
# Mus musculus [12] = test: In vivo activity tested against C3H mice bearing panc-03 murine tumor measured as activity rating at 561 mg/kg (po); format: functional
# Mus musculus [13] = test: In vivo activity tested against C3H mice bearing panc-03 murine tumor measured as % treated/control calculated at 1010 mg/kg (po); format: functional
# Mus musculus [14] = test: In vivo activity tested against C3H mice bearing panc-03 murine tumor measured as log Kill value was based on tumors that grew at 1010 mg/kg (po); format: functional, organism-based; design: dose 1010 mg/kg
# Mus musculus [15] = test: In vivo activity tested against C3H mice bearing panc-03 murine tumor measured as % treated/control calculated at 561 mg/kg (po); format: functional
# Mus musculus [16] = test: In vivo activity tested against C3H mice bearing panc-03 murine tumor measured as body weight loss at 561 mg/kg (po); format: functional
# Mus musculus [17] = test: In vivo activity tested against C3H mice bearing panc-03 murine tumor measured as log Kill value was based on tumors that grew at 561 mg/kg (po); None; format: functional, organism-based; design: dose 561 mg/kg
# Mus musculus [18] = test: In vivo activity tested against C3H mice bearing panc-03 murine tumor measured as body weight loss at 1010 mg/kg (po); format: functional
# Mus musculus [19] = test: In vivo activity tested against C3H mice bearing colon adenocarcinoma -38(colon-38) tumor measured as % treated/control calculated at 495 mg/kg (po); format: functional
# Mus musculus [20] = test: In vivo activity tested against C3H mice bearing colon adenocarcinoma -38(colon-38) tumor, measured as cures at 495 mg/kg (po); 3/5 cures; format: functional
# Mus musculus [21] = test: In vivo activity tested against C3H mice bearing colon adenocarcinoma -38(colon-38) tumor measured as activity rating at 495 mg/kg (po); format: functional
# Mus musculus [22] = test: In vivo activity tested against C3H mice bearing colon adenocarcinoma -38(colon-38) tumor measured as log Kill value was based on tumors that grew at 495 mg/kg (po); format: functional, organism-based; design: dose 495 mg/kg
# Mus musculus [23] = test: In vivo activity tested against C3H mice bearing colon adenocarcinoma -38(colon-38) tumor measured as body weight loss at 495 mg/kg (po); format: functional
# Mus musculus [24] = test: In vivo activity tested against C3H mice bearing panc-03 murine tumor measured as body weight loss at 1320 mg/kg (po); format: functional
# Mus musculus [25] = test: In vivo activity tested against C3H mice bearing panc-03 murine tumor measured as log Kill value was based on tumors that grew at 1320 mg/kg (po); format: functional, organism-based; design: dose 1320 mg/kg
# Mus musculus [26] = test: In vivo activity tested against C3H mice bearing panc-03 murine tumor measured as % treated/control calculated at 1320 mg/kg (po); format: functional
structure (smiles),measurement,setting,value
CC(Oc1ccc(Oc2cnc3cc(F)ccc3n2)cc1)C(=O)O (stereo unspecified),Log kill,Mus musculus [1],0.9
same,Body weight loss,Mus musculus [2],1%
same,Activity rating,Mus musculus [3],1.2
same,T/C,Mus musculus [4],34%
CC(Oc1ccc(Oc2cnc3ccc(F)cc3n2)cc1)C(=O)O (stereo unspecified),Activity rating,Mus musculus [5],>2.8
same,Log kill,Mus musculus [6],3.7
same,Body weight loss,Mus musculus [7],-13%
same,T/C,Mus musculus [8],0%
same,Cures,Mus musculus [9],3
CC(Nc1ccc(Oc2cnc3ccc(Cl)cc3n2)cc1)C(=O)O (stereo unspecified),T/C,Mus musculus [10],100%
same,Activity rating,Mus musculus [11],>2.8
CC(Oc1ccc(Oc2cnc3c(Cl)cccc3n2)cc1)C(=O)O (stereo unspecified),Activity rating,Mus musculus [12],<0.7
same,T/C,Mus musculus [13],59%
same,Log kill,Mus musculus [14],0.27
same,T/C,Mus musculus [15],>100%
same,Body weight loss,Mus musculus [16],2%
same,Log kill,Mus musculus [17],inactive
same,Body weight loss,Mus musculus [18],-2%
COC(=O)C(C)Oc1ccc(Oc2cnc3ccc(Cl)cc3n2)cc1 (stereo unspecified),T/C,Mus musculus [19],0%
same,Cures,Mus musculus [20],3
same,Activity rating,Mus musculus [21],>2.8
same,Log kill,Mus musculus [22],3.5
same,Body weight loss,Mus musculus [23],0%
CC(Oc1ccc(Oc2cnc3ccc(Cl)cc3n2)cc1)C(N)=O (stereo unspecified),Body weight loss,Mus musculus [24],-3.6%
same,Log kill,Mus musculus [25],1.9
same,T/C,Mus musculus [26],7.3
